Test results reported in patent US12122756B2, “Biflavone compound against I-type herpes simplex virus, and preparation method therefor and use thereof” (priority 2022, dated 2024).
Like-named read-outs stand apart in the source and are kept apart here. Marks after values point to notes of the source that are not given here.

Legend:
Vero cells = experiment: Cytotoxic assay of tested drugs against Vero cells (CCK-8); format: cell-based, African green monkey; conditions: for highest non-toxic concentration: Vero cells, CCK-8
Procedure: 3. Cytotoxic assay of tested drugs against Vero cells: Vero cells were seed in a 96 well plate at 3×10^4 cells/well. The next day, after growing into a monolayer, the test drug was diluted to obtain 8-9 concentrations and added to each well. Meanwhile, a normal control group was established, with 4 replicate wells for each group. After 72 hours, the toxicity of the test drug to Vero cells was measured using CCK-8 assay, and the highest non-toxic concentration and half toxic concentration (TC50) of the drug on the cells were calculated.

HSV-I = experiment: Cytopathic effect (CPE) assay: inhibition of pathological changes of Vero cells induced by HSV-I (CCK-8); format: cell-based, Herpes simplex virus type I; conditions: for inhibitory effect on HSV-I induced cytopathic changes (in words): CPE method; for Inhibition rate (%) / OD value: n = 5
Procedure: (1) Determination of the inhibitory activities of the test drugs on pathological changes of Vero cells induced by HSV-I using the cytopathic effect (CPE) assay: Vero cells were seeded in a 96-well plate and grew into a monolayer the next day. 100TCID50 HSV-I was added to infect cells, and then the cell maintenance solution containing different concentrations of the test drug was replaced, and a cell control group was included. The cells were cultured in an incubator for 72 hours. Then, the inhibitory effect of the drug on virus-induced cytopathic changes was measured using the CCK-8 assay, and thus the 50% inhibiting concentration (IC50) of the drug was calculated.

[1] = Solubility (highest solubility used as starting concentration; water solubility)
[2] = 1st (highest) concentration (971, 1600, 2620, 390 μg·ml^−1 for Compounds 1-4), 72 h
[3] = 2nd concentration, 50% serial dilution from column-head concentration, 72 h
[4] = 3rd concentration, 50% serial dilution from column-head concentration, 72 h
[5] = 4th concentration, 50% serial dilution from column-head concentration, 72 h
[6] = 5th concentration, 50% serial dilution from column-head concentration, 72 h
[7] = 6th concentration, 50% serial dilution from column-head concentration, 72 h
[8] = 7th concentration, 50% serial dilution from column-head concentration, 72 h
[9] = 8th concentration, 50% serial dilution from column-head concentration, 72 h
[10] = 9th concentration, 50% serial dilution from column-head concentration, 72 h
[11] = Concentration 1 (3 concentrations, 50% dilution based on highest non-toxic concentration)

SMILES | TC50 on Vero cells (Vero cells) [µg/mL] | growth inhibition rate (%) on Vero cells (Vero cells; [2]) | growth inhibition rate (%) on Vero cells (Vero cells; [3]) | growth inhibition rate (%) on Vero cells (Vero cells; [4]) | growth inhibition rate (%) on Vero cells (Vero cells; [5]) | growth inhibition rate (%) on Vero cells (Vero cells; [6]) | growth inhibition rate (%) on Vero cells (Vero cells; [7]) | growth inhibition rate (%) on Vero cells (Vero cells; [8]) | growth inhibition rate (%) on Vero cells (Vero cells; [9]) | growth inhibition rate (%) on Vero cells (Vero cells; [10]) [%] | inhibitory effect on HSV-I induced cytopathic changes (in words) (HSV-I) | Inhibition rate (%) (HSV-I; [11]) | OD value (HSV-I; [11]) | Inhibition rate (%) (HSV-I; Concentration 2) | OD value (HSV-I; Concentration 2) | Inhibition rate (%) (HSV-I; Concentration 3) | OD value (HSV-I; Concentration 3) | TC50 on Vero cells (Vero cells; 72 h, CCK-8, Probit regression) [µg/mL] | highest non-toxic concentration (Vero cells; 72 h) [µg/mL] | solubility [1] [µg/mL]
COc1c(O)cc2occ(-c3ccc(O)c(S(=O)(=O)[O-])c3)c(=O)c2c1O.[Na+] [Compound 1, sodium tectorigenin-5′-sulphonate] | 390.312 | 57.86** % | 49.99** % | 42.06** % | 39.97** % | 34.95** % | 28.48** % | 27.14** % | 25.37** % | −1.57 | the effect was not significant | 4.41 | 0.37 ± 0.04 | 3.29 | 0.37 ± 0.02 | 2.26 | 0.36 ± 0.03 |  |  | 
CCOc1ccc(-c2coc3cc(OCC)c(OC)c(O)c3c2=O)cc1S(=O)(=O)[O-].[Na+] [Compound 3, sodium 4,7′-diethyltectorigenin-5′-sulphonate] |  | 45.06** % | 40.80** % | 36.94** % | 34.23** % | 32.36** % | 27.12** % | 25.55** % | 22.06** % | −0.24 | no significant inhibitory effect | 6.20 | 0.38 ± 0.05 | 8.65 | 0.39 ± 0.10 | 4.09 | 0.37 ± 0.03 | 3020.44 | 3.496 | 2620
CCOc1ccc(-c2coc3c(Cc4c(OCC)c(OC)c(O)c5c(=O)c(-c6ccc(OCC)c(S(=O)(=O)[O-])c6)coc45)c(OCC)c(OC)c(O)c3c2=O)cc1S(=O)(=O)[O-].[Na+].[Na+] [Compound 4, sodium 8,8″-methylene-di-(4,7′-diethyltectorigenin-5′-sulphonate)] |  | 28.40** % | 27.54** % | 26.53** % | 23.48** % | 22.02** % | 18.43** % | 14.94** % | 9.42% | −23.23 | no significant inhibitory effect | 5.96 | 0.32 ± 0.02 | 6.09 | 0.32 ± 0.01 | 5.99 | 0.32 ± 0.01 | 11308.7 | 0.864 | 390
